Laboratory results reported in patent publication US20210205638A1, “PARATHYROID HORMONE AND REGENERATION OF DEGENERATIVE DISCS DISEASE” (THE JOHNS HOPKINS UNIVERSITY, priority 2017, published 2021).

Experiments:
NP cells = assay: cAMP assay in NP cells (enzyme immunoassay); type: cell-based, mouse; details: PTH (1-34) 100 nmol
Description: Green fluorescent protein (GFP) labeled NP cells of notochordal origin were isolated from 15-day old Noto^Cre/+::ROSA26-lacZ^flox/flox male mice as previously described. The NP cells from 15-day old PTH1R^+/+ and PTH1R^−/−, IFT88^+/+ and IFT88^−/− male mice. Briefly, the cells were isolated from the NP region of IVDs in the spinal column from mid thoracic to lower lumbar region and digested initially with TrypLE Express (Gibco) for 30 minutes on shaker, followed by 0.25 mg/ml Collagense-P (Roche) for another […] at 37° C. The digested cells were washed twice with PBS, and cultured in α-MEM (Gibco) supplemented with 10% fetal calf serum (Atlanta Biologicals), and 1% penicillin—streptomycin (Mediatech) to 80-90% confluence at 37° C., 5% CO2 and 5% O2.
For cAMP assays, confluent cells were grown in 35-mm six-well plates starved overnight by incubation in serum-free α-MEM at 37° C. The cells were then treated with 100 nM human of human PTH (1-34; Bachem Calif., Inc.) for 1 h. Cellular cAMP was extracted and the concentration measured with the Biotrak enzyme immunoassay system (GE Healthare, Inc., Princeton, HJ). We determined the concentration of total and active TGF-β in the NP tissue using the ELISA Development Kit (R&D Systems) according to the manufacturer's instructions.

18-month-old mice = assay: iPTH in aged mice: safranin O staining and immunostaining of IVD sections; type: in vivo, mouse
Description: For immunocytochemical staining, we incubated GFP labeled NP cells co-stained with primary antibody to rabbit PTH1R PRB-635P (Covance, 1:100) for 1 h and subsequently stained with secondary antibodies conjugated with fluorescence at room temperature. At the time of euthanasia, we dissected and fixed the lumbar vertebral spine in 10% buffered formalin for 48 h, decalcified them in 10% EDTA (pH 7.4) for 14-21 days and embedded them in paraffin or optimal cutting temperature (OCT) compound (Sakura Finetek). Fourmicrometer-thick coronal-oriented sections of the L1-L6 spine were processed for safranin O and fast green staining. Sections for immunostaining was performed using a standard protocol and incubated with primary antibodies to rabbit ACAN (Abcam, 1:100), CCN2 (Abcam, 1:100), integrin β8 (Abcam, 1:200), pCREB (Abcam, 1:100) and PTH1R PRB-635P (Covance, 1:100), mouse pSmad2/3 (Santa Cruz, 1:100), integrin αvβ6 (Millipore, 1:100), integrin αvβ3 (Bioss, 1:100,), integrin αvβ5 (Bioss, 1:100) at 4° C. overnight. For immunohistochemical staining, a horse radish peroxidase-streptavidin detection system (Dako) was subsequently used to detect the immunoactivity, followed by counterstaining with hematoxylin (Sigma-Aldrich). For immunofluorescent assay, the slides were incubated with secondary antibodies conjugated with fluorescence at room temperature for 1 h while avoiding light. We used isotype-matched controls, such as polyclonal rabbit IgG (R&D Systems, AB-105-C) under the same concentrations and conditions as negative controls. We micro photographed sections to perform histomorphometric measurements on the entire area of the L3-L4 of the spine (Olympus DP71).
Quantitative histomorphometric analysis was conducted in a blinded fashion with Image-Pro Plus Software version 6.0 (Media Cybernetics Inc). IVD histological score were obtained as previously described67. Five randomly selected sections per mice in each group at L3-L4 level were chosen for quantitative histomorphometric analysis. The percentage of pSmad2/3 and pCREB positive cells was obtained by counting the number of positive staining cells to the number of total cells in the NP region. The percentage area of CCN2 and ACAN positive staining was calculated by measuring the positive area to the whole area of the L3-L4 in each group.

SMILES: CC[C@H](C)[C@H](NC(=O)[C@H](CCC(=O)O)NC(=O)[C@H](CO)NC(=O)[C@@H](NC(=O)[C@@H](N)CO)C(C)C)C(=O)N[C@@H](CCC(N)=O)C(=O)N[C@@H](CC(C)C)C(=O)N[C@@H](CCSC)C(=O)N[C@@H](Cc1cnc[nH]1)C(=O)N[C@@H](CC(N)=O)C(=O)N[C@@H](CC(C)C)C(=O)NCC(=O)N[C@@H](CCCCN)C(=O)N[C@@H](Cc1cnc[nH]1)C(=O)N[C@@H](CC(C)C)C(=O)N[C@@H](CC(N)=O)C(=O)N[C@@H](CO)C(=O)N[C@@H](CCSC)C(=O)N[C@@H](CCC(=O)O)C(=O)N[C@@H](CCCN=C(N)N)C(=O)N[C@H](C(=O)N[C@@H](CCC(=O)O)C(=O)N[C@@H](Cc1c[nH]c2ccccc12)C(=O)N[C@@H](CC(C)C)C(=O)N[C@@H](CCCN=C(N)N)C(=O)N[C@@H](CCCCN)C(=O)N[C@@H](CCCCN)C(=O)N[C@@H](CC(C)C)C(=O)N[C@@H](CCC(N)=O)C(=O)N[C@@H](CC(=O)O)C(=O)N[C@H](C(=O)N[C@@H](Cc1cnc[nH]1)C(=O)N[C@@H](CC(N)=O)C(=O)N[C@@H](Cc1ccccc1)C(=O)O)C(C)C)C(C)C [PTH (1-34), teriparatide]
- time at which cAMP level in NP cells peaked (NP cells): 30 min
- IVD score (18-month-old mice): decrease
- level of CCN2+ (18-month-old mice; immunostaining): increased
- level of aggrecan (18-month-old mice; immunostaining): increased
- number of pSmad2/3+ NP cells (18-month-old mice; immunostaining): increased
- number of NP cells (18-month-old mice; safranin O): significantly increased
